Measured values as given in patent US9868935B2, “Composition and method of stem cells for preservation of cardiac tissue” (CRIOESTAMINAL, SAÚDE E TECNOLOGIA, SA., priority 2012, dated 2018).

Legend:
[1] = tested on: CD34+ cells encapsulated in fibrin gel; assay: Survival of CD34+ cells encapsulated in fibrin gels in hypoxia and serum deprived conditions; assay type: cell-based, human; conditions: LPA-treated
Method: In an embodiment, fibrin gels were formed by crosslinking of fibrinogen in the presence of thrombin (both from Sigma-Aldrich). The fibrinogen solution was prepared by dissolving human fibrinogen in Tris-buffered saline (TBS) (preferably, Sigma-Aldrich), pH 7.4 (20 mg/mL), and then sterilized by filtering through a 0.22 μm syringe filter (Acrodisc, Pall, NY, USA). Fresh thrombin solutions were prepared by dissolving human thrombin in TBS at pH 7.4 at a concentration of 50 U/mL. Fibrin gels (200 μL, unless otherwise stated) were prepared by mixing three different components: fibrinogen (10 mg/mL), CaCl2 (preferably, Merck, NJ, USA) ([…]) and thrombin (0.2 U/mL). This solution was allowed to gel at 37° C. and 100% relative humidity.
Injectable scaffolds are very promising vehicles to deliver stem cells for regenerative medicine since they provide a favorable structural support for cell survival and proliferation (Pedroso, D. C., et al., Improved survival, vascular differentiation and wound healing potential of stem cells co-cultured with endothelial cells. PLoS One, 2011. 6(1): p. e16114; Kraehenbuehl, T. P., R. Langer, and L. S. Ferreira, Three-dimensional biomaterials for the study of human pluripotent stem cells. Nat Methods, 2011. 8(9): p. 731-6; Nakamuta, J. S., et al., Cell therapy attenuates cardiac dysfunction post myocardial infarction: effect of timing, routes of injection and a fibrin scaffold. PLoS One, 2009. 4(6): p. e6005.). Several studies have shown that cells transplanted with scaffolds in the cardiac setting improved cell survival, induced angiogenesis and preserved cardiac function after infarction (Nakamuta, J. S., et al., Cell therapy attenuates cardiac dysfunction post myocardial infarction: effect of timing, routes of injection and a fibrin scaffold. PLoS One, 2009. 4(6): p. e6005; Christman, K. L., et al., Fibrin glue alone and skeletal myoblasts in a fibrin scaffold preserve cardiac function after myocardial infarction. Tissue Eng, 2004. 10(3-4): p. 403-9; Kraehenbuehl, T. P., et al., Human embryonic stem cell-derived microvascular grafts for cardiac tissue preservation after myocardial infarction. Biomaterials, 2011. 32(4): p. 1102-9; Kutschka, I., et al., Collagen matrices enhance survival of transplanted cardiomyoblasts and contribute to functional improvement of ischemic rat hearts. Circulation, 2006. 114(1 Suppl): p. I167-73). […] Cell viability was evaluated by flow cytometry using Annexin V/propidium iodide (PI) staining.

CD34+ cells = assay: Cytokine secretion by CD34+ cells (Bio-Plex cytokine bead array); assay type: cell-based, human; conditions: LPA 100 μM; hypoxia, serum free, 24 h
Method: In an embodiment, cell culture supernatants were evaluated for the presence and concentrations of cytokines using a Bio-Plex Pro Human Cytokine 17-Plex Panel Assay (preferably, Bio-Rad, Hercules, Calif., USA), according to manufacturer's instructions, in a Bio-Plex 200 System (Bio-Rad, www.bio-rad.com). The human Group I 17-Plex Panel consisted of the following analytes: interleukin-1β (IL-1β), IL-2, IL-4, IL-5, IL-6, IL-7, IL-8; IL-10, IL-12(p70), IL-13, IL-17, granulocyte colony-stimulating factor (G-CSF), granulocyte/macrophage colony-stimulating factor (GM-CSF), interferon-γ (IFN-γ), monocyte chemotactic protein (monocyte chemotactic activating factor [MCP-1 (MCAF)], macrophage inflammatory protein-β (MIP-1 β) and tumor necrosis factor-α (TNF-α). Supernatant media samples were collected, centrifuged to remove precipitates and frozen. A standard range of 0.2 to 3,200 pg/mL was used. Samples and controls were run in triplicate, standards and blanks in duplicate.
To determine the effect of LPA in the release of signaling cytokines and growth factors by CD34+ cells, was used a cytokine bead array. The cells were incubated in serum free medium X-Vivo for 24 h under normoxia or hypoxia conditions, either in the presence or absence of LPA (100 μM). Untreated CD34+ cells in normoxia express high levels (>100 pg/mL) of IL-8 and MIP-1b, medium levels (between 100 and 1 pg/mL) of IL-6, TNF-α and GM-CSF, and low levels (<1 pg/mL) of IL-1β, IL-4 and IL-17 (FIG. 5C).

**Q.** Which viable cells ([1]; encapsulated in fibrin gel, hypoxia day 1) does the source give for lysophosphatidic acid [LPA] here?
**A.** 69.0±0.7%

**Q.** What about the viable cells ([1]; encapsulated in fibrin gel, hypoxia day 3) of the same substance?
**A.** 51.1±0.8%

**Q.** What about the viable cells ([1]; non-encapsulated, hypoxia day 1) of the same substance?
**A.** 76.7±1.5%

**Q.** And the viable cells ([1]; non-encapsulated, hypoxia day 3)?
**A.** 37.2±6.6%

**Q.** And the “secretion of GM-CSF” value (CD34+ cells)?
**A.** ~1 pg/mL

**Q.** And the “secretion of IL-1” value (CD34+ cells)?
**A.** ~2 pg/mL

**Q.** What about the “secretion of IL-4” value (CD34+ cells) of the same substance?
**A.** ~2.7 pg/mL

**Q.** And the “secretion of IL-6” value (CD34+ cells)?
**A.** ~2 pg/mL

**Q.** And the “secretion of IL-8” value (CD34+ cells)?
**A.** ~17,000 pg/mL

**Q.** And the “secretion of TNF-α” value (CD34+ cells)?
**A.** ~15 pg/mL
